Assay results from patent US20150158931A1, “CYSTEINE PROTEASE CAPTURING AGENTS” (Stichting Het Nederlands Kanker Instituut, priority 2012, published 2015).
Primed or numbered codes have the meaning given here. PEG4′ = not defined here; PRG = propargyl

Assays:
[1] = target: T1, UCH-L3 (Homo sapiens, UniProt P15374); assay: Reaction between Ubiquitin75-propargylamide and UCH-L3 (LC-MS, SDS-PAGE); type: binding
T1 construct: made in house
T1 sequence (P15374 1-230): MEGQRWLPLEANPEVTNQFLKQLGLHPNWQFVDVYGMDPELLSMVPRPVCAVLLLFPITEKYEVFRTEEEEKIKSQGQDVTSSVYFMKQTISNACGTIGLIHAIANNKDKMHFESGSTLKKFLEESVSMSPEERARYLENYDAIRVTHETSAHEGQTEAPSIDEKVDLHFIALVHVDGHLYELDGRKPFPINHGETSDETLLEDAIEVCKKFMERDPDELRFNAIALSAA
Description: Recombinant UCH-L3 was expressed and purified as described previously (C. N. Larsen, J. S. Price, K. D. Wilkinson, Biochemistry 35, 6735 (1996)).
(§1) General procedure: DUB was dissolved in PBS with 5 mM dithiothreitol to a concentration of 1 mg/mL.

[2] = target: T1, UCH-L3; assay: Thioradical-mediated cleavage of Ub-Prg-UCH-L3 complex; settings: ethane thiol 50 mM, VA-044 10 mM, three hours
Description: The reaction was incubated for 30 minutes at 37° C. and was buffer exchanged into water by PD-10 column (GE Healthcare) and lyophilized overnight. The resulting white powder was dissolved in PBS (100 μL) and to 90 μL of this solution 10 μL of ethanethiol was added (143 μmole) and VA-044 to a final concentration of 10 mM. The reaction was shaken at 37° C. for three hours prior to LC-MS analysis.
To a solution of Ub-prg-UCH-L3 complex in PBS (0.5 mg/mL; 80 μL) various amounts of thiol were added to the final concentrations indicated. Radical initiator VA-044 was added at the concentrations indicated and the reaction was shaken at 37° C. for 3 hours after which the reactions were analysed by non-reducing SDS-PAGE.

[3] = target: T2, papain (Carica papaya, UniProt P00784); assay: In vitro labeling reaction of cysteine proteases: papain; type: binding
T2 construct: papain, a general cysteine protease obtained from Papaya Latex; from tissue; host or cells: papaya latex
T2 sequence (P00784 134-345): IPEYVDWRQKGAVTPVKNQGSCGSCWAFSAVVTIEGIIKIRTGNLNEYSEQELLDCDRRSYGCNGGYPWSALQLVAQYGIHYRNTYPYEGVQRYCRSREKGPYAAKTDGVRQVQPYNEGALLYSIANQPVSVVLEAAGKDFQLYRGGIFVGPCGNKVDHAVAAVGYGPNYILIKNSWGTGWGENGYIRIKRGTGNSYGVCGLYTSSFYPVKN
Description: as §1

[4] = target: T1, UCH-L3; assay: Acid cleavage of the complex between Ubiquitin75-propargylamide and the DUBs; settings: incubation with various acids
Description: To a solution of Ubiquitin75-propargylamide-UCH-L3 complex in PBS (3 mg/mL; 10 μL) was added a 3-fold concentrated solution of the tested acid. The reactions were incubated overnight and analyzed by SDS-PAGE chromatography and/or mass spectrometry.

[5] = system: GFP-DUB fusions (catalytic cysteine to serine mutants); assay: Labeling of overexpressed GFP-DUB fusions in cell lysates; type: binding; settings: transfected cells, lysate
Description: For overexpression of GFP-tagged DUBs in cells, wild type USP14, Otub1, Otub2, Otud1 and POH1 were subcloned from pDEST-cDNA constructs (Addgene) into the eGFP-C1 vector system (Clontech) at XhoI/EcoRI restriction sites. Mutagenesis of catalytic Cysteines was performed by standard protocols (Stratagene) using the following primers (sites of mutagenesis underlined): USP14-C114S forward-CTTGGTAACACTTCTTACATGAATGCC, reverse-GGCATTCATGTAAGAAGTGTTACCAAG; Otub1-C9/S forward-CCTGACGGCAACTCTTTCTATCGGGC, reverse-GC CCGATAGAAAGAGTTGCCGTCAGG; Otub2-C51S forward-GG GATGGGAACTCCTTCTACAGGGCC, reverse-GGCCCTGTAGAAGGAGTTCCCATCCC. […] Reactions were stopped by the addition sample loading buffer supplemented with (β-mercaptoethanol, followed by boiling for 10 min. Samples were resolved on 4-12% MOPS NU-PAGE Gels (Invitrogen) and probe reactivity was assessed by TAMRA fluorescence scanning as described above. Gels were then transferred onto Nitrocellulose membranes and immunoblotted using anti-GFP serum produced in rabbit and mouse anti-β-actin (Sigma-Aldrich). Immunoblots were visualized using a Licor Odyssey. The following fluorescent secondary antibodies purchased from LICOR were used: anti-mouse-680, anti-rabbit-800.

[6] = target: T3, ubiquitin ligase E1 (Homo sapiens, UniProt P22314); assay: In vitro labeling reaction: ubiquitin ligase E1; type: binding
T3 sequence (P22314 1-1058): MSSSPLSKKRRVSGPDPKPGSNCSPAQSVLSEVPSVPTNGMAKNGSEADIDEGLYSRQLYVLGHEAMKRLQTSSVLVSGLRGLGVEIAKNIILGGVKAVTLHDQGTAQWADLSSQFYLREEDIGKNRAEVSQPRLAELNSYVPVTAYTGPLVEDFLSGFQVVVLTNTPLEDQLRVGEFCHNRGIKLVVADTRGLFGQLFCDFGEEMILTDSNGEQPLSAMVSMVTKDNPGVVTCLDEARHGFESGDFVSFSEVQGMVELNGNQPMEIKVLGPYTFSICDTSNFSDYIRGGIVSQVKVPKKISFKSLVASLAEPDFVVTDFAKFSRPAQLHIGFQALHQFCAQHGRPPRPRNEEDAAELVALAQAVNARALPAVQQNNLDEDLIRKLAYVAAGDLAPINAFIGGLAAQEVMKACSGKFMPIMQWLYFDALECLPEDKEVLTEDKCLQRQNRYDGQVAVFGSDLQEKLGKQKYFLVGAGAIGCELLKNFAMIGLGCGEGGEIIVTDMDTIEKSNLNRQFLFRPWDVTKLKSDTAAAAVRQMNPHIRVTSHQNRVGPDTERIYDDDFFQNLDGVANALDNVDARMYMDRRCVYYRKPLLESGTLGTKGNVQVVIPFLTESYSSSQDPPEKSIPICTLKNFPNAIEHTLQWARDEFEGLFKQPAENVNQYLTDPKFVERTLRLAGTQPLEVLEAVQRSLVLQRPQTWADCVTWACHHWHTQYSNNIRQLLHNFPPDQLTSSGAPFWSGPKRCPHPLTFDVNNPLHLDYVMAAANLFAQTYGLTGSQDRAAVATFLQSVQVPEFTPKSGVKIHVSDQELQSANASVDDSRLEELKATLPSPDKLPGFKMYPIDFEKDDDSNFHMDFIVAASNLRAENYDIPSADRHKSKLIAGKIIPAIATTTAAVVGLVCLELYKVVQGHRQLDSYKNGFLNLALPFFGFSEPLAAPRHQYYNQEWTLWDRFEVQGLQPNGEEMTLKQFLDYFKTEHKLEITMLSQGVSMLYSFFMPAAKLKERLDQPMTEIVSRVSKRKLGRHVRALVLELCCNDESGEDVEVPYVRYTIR
Description: as §1

[7] = system: cysteine protease DUBs; assay: Reaction between Ubiquitin75-propargylamide and DUBs, in vitro labeling; type: binding; settings: including OTU-domain containing DUBs
Description: as §1

[8] = system: SENP-1; assay: In vitro labeling reaction of cysteine proteases: SENP-1; type: binding
Description: as §1

[9] = system: SENPs (GST-SENP1, SENP6, SENP7); assay: Labeling of SENPs with SUMO-PRG peptides (SDS-PAGE, fluorescence); type: binding, human; settings: for selective capturing / binding of SENPs: SENPs 1 μM, peptides 50 μM, 1 hour at RT; for binding to SENPs denatured prior to addition of the peptides: hydrolases denatured (1x LB, 5 min boiling) before peptide
Description: The following experiment was performed to confirm that propargyl modified SUMO peptide (fragments) in accordance with the invention are selective capturing agent for the corresponding SENPs. The following SUMO peptides and SENPs were used in the Experiment. • SUMO peptides: • SUMO1=Cy5-PEG4-YQEQTG-PRG • SUMO2,3=Cy5-PEG4-FQQQTG-PRG • SENPs: • GST-SENP1 (43 kDa) • SENP6 (33.1 kDa) • SENP7 (37.2 kDa)
The SENPs (1 μM final concentration) were incubated with the SUMO-PRG peptides (50 μM final concentrations) for 1 hour at RT in buffer (20 mM Tris, 100 mM NaCl, 1 mM DTT, pH 7.5). Samples were denatured using 1× LB and boiled for 5 min. As a control, the SENPs were denatured (1×LB and 5 min. boiling) prior to treatment with the SUMO-PRG peptides. Samples were resolved by SDS-PAGE (12% polyacryl amide, MES buffer) and proteins were visualized by fluorescence (λex,em=625,680 nm) and CBB staining.

[10] = system: DUBs in cell lysates; assay: Labeling of active DUBs in cell lysates at endogenous levels with fluorescent probe; type: binding; settings: fluorescence

Substance: Ubiquitin75-propargylamide [Ub-Prg]
- bond formation with UCH-L3, stable to denaturing LC-MS and denaturing SDS-PAGE ([1]; 1.2 molar equivalents, 37 °C, 30 minutes): forms a bond with UCH-L3
- reactivity with UCH-L3 after pre-treatment with iodoacetamide ([1]; UCH-L3 pre-treated with general alkylating agent iodoacetamide): abolished all reactivity
- complex formation with radical scavenger ([1]; presence of excess radical scavenger): complex formation
- thioradical treatment of purified complex with UCH-L3 [2]: cleavage was observed
- reactivity towards papain [3]: unreactive
- acid lability of complex with UCH-L3 [4]: cleavage of the complex
- reaction with DUB mutants, active site cysteine mutated to serine [5]: abolished binding
- reactivity towards ubiquitin ligase E1 [6]: no reactivity
- reaction in vitro with cysteine protease DUBs [7]: react in vitro with all cysteine protease DUBs tested
- reaction in vitro with cysteine protease DUBs ([7]; listed as Ubiquitin-propargyl): reacts with all classes of cysteine deubiquitinating enzymes
- reactivity towards SENP-1 [8]: unreactive

Substance: Cy5-PEG4-YQEQTG-PRG ({Cy5-PEG4′}-YQEQTG-{PRG}) [SUMO1, truncated fluorescent C-terminal propargylated SUMO peptide, C-terminus of SUMO-1]
- selective capturing / binding of SENPs [9]: selective binding
- binding to SENPs denatured prior to addition of the peptides [9]: completely abolishes binding

Substance: TMR-Ub-Prg: N-terminally tetramethylrhodamine (TMR) labeled analogue of Ub-Prg
- labeling of active DUBs in lysates at endogenous levels [10]: clear labeling results
- reaction with DUB mutants, active site cysteine mutated to serine [5]: failed to react

Substance: Cy5-PEG4-FQQQTG-PRG ({Cy5-PEG4′}-FQQQTG-{PRG}) [SUMO2,3, truncated fluorescent C-terminal propargylated SUMO peptide, C-termini of SUMO-2 and SUMO-3]
- selective capturing / binding of SENPs [9]: selective binding
- binding to SENPs denatured prior to addition of the peptides [9]: completely abolishes binding
